# Experimental data as given in patent publication US7514404B2, “PNA-neamine conjugates and methods for producing and using the same” (University of Medicine & Dentistry of New Jersey, priority 2004, dated 2009).
# System: pseudotyped HIV-1 virions carrying the firefly luciferase reporter gene
# Test: Luciferase activity in CEM cells infected with pseudotyped HIV-1 virions
# Assay type: cell-based
# Details: concentrations greater than 5 μM in the culture medium
# Protocol: The ability of a TAR-specific PNA-neamine conjugate to block HIV-1 production when supplemented in the culture medium was also examined. Lymphocyte CEM cells were infected with pseudotyped HIV-1 virions carrying the firefly luciferase reporter gene. The infected cells were incubated with varying concentration of PNATAR-neamine conjugate 60 or naked PNATAR during 48 hours at 37° C. and lysed to measure firefly luciferase activity. Anti-TAR PNA-transportan conjugate (PNA-membrane-permeating peptide conjugate) known to inhibit HIV-1 replication (Kaushik, et al. (2002) supra) was used as a positive control. […] Supplementation of naked PNA of SEQ ID NO:1 in the culture medium had no influence on luciferase gene expression.
# Isolation of HIV-1 Virions. The pseudotyped HIV-1 virions were isolated from the culture supernatant of 293T cells transfected with pHIV-1JR-CSF-Lucenv (-) and pVSV-G clones. The culture supernatant (500 mL) was filtered through 0.45 μm pore size membrane and centrifuged at 70,000 g for 45 minutes. […] HIV-1 virions were quantified by determining the RNA copy number in the sample using NUCLISENS® HIV-1-QT Amplication Kit (Organon Teknika, Durham, N.C.). […] The virion number estimated from the RNA copy number was in agreement with the number determined by p24 quantification (1 pg p24 per 12500 virions). […]
structure (smiles),measurement,value
"NC[C@H]1O[C@H](O[C@H]2[C@H](O)[C@@H](O)[C@H](N)C[C@@H]2N)[C@H](N)[C@@H](O)[C@@H]1O [neamine core, neamine]",inhibition of HIV-1 replication,did not inhibit
